Laboratory results as given in paper PMC9989931, “Membrane‐acting biomimetic peptoids against visceral leishmaniasis” (FEBS Open Bio, 2023).
Values joined by “and” are separate entries in the source; they are usually repeats but may differ in a detail not shown here. Equal values may be shown once. “Also recorded” adds a separate entry of the source. Square brackets hold non-standard residues; d marks the D form. Peptide text beside a SMILES is read from it. Nspe(4-Br) = C[C@H](NCC(=O)O)c1ccc(Br)cc1; N(tridecyl)Gly = CCCCCCCCCCCCCNCC(=O)O; Nspe = C[C@H](NCC(=O)O)c1ccccc1; Nlys = NCCCCNCC(=O)O

Columns and labels:
[1] = system: Leishmania donovani promastigotes (Bob strain); type: cell-based; settings: 4 h; for Reduction of promastigote viability: at 3 μM, MTT, vs untreated cells
Description: Promastigotes of bob L. donovani were harvested in the log phase, and parasite inhibition was determined through 3‐(4,5‐dimethylthiazol‐2‐yl)‐2,5‐diphenyl‐tetrazolium bromide (MTT) methods using twofold dilution techniques. Briefly, promastigote density of 2 × 10^6 cells was taken, and different peptoid dilutions were added (0.187–3 μM) in a total volume of 100 μL. Percentage parasite viability was evaluated at 4 h at 25 °C using MTT (Sigma‐Aldrich). Parasite viability rate (%) = [OD of test sample/OD of untreated sample] × 100.
All experiments were carried out in triplicate and repeated at least three times independently (biological replicates), and the figures shown are representative of these experiments. IC50 was calculated using GRAPHPAD PRISM 6.0 software. The data were analyzed using Student's t‐test for comparison of two groups, and data values were expressed as mean ± standard deviation (SD). Significant differences were determined and designated with asterisks as follows: *P < 0.05; **P < 0.01; ***P < 0.001; and ****P < 0.0001.
Fig. 1 Antileishmanial activity of peptoids against Leishmania donovani promastigotes. Early‐logarithmic‐phase promastigotes of L. donovani bob strain were treated with different peptoids at different concentrations (0–3 μM) for 4 h. Negative control was considered 100% of cell viability (untreated) and positive control (Triton X treated). Cellular viability was assessed by MTT assay, and the IC50 values were calculated using GRAPHPAD PRISM 6.0. Error bars represent SD N = 3 and n = 3.

[2] = system: Leishmania donovani intracellular amastigotes; assay: Intracellular amastigote clearance in infected RAW 264.7 macrophages (Giemsa staining, microscopy); type: cell-based; design: key to Effect on intracellular amastigotes: *: Good; **: Better; ***: Best; settings: infected RAW 264.7 cells, 10 μM peptoid; for Effect on intracellular amastigotes: Giemsa staining, grade; for Effect on intracellular amastigotes by Giemsa staining (number, size, count): vs untreated control, 24 h or 4 h
Description: To evaluate the inhibitory effect of different peptoids on intracellular amastigotes, RAW 264.7 cells were infected with logarithmic phase promastigotes. Briefly, RAW 264.7 cells (10^5 cells/well) were seeded in 24‐well plates with round sterile coverslips and allowed to adhere to the coverslip for 24 h at 37 °C at 5% CO2 DMEM media supplemented with 10% FBS. Adherent macrophages were infected with L. donovani promastigotes at 1 : 10 (macrophage: promastigotes) for 6 h. Co‐infected cells were washed with PBS three times and incubated for a further 24 h for infection establishment. After 24 h, media were removed and again washed with FBS‐free DMEM followed by peptoid treatment. Ten μM of different peptoids were added to the co‐infected cells and incubated for 4 h at 37 °C at 5% CO2. After 4 h, peptoid‐treated co‐infected cells were washed with PBS, fixed with 100% methanol, and stained with diluted Giemsa stain (1 : 10) (HiMedia, Mumbai, India). The parasite clearance status of peptoids was determined by counting the number of the parasites using the Leica LAS core microscope system by counting 100 cells per coverslip.
Fig. 2 Giemsa staining of intracellular amastigotes in macrophage 264.7 cells after treatment with different peptoids at 10 μM concentrations. Untreated amastigotes (A), sample treated with TM 1 (B), TM 2 (C), TM 3 (D), TM 4 (E), TM 5 (F), TM 7 (G), TM 9 (H), and TM 10 (I). Red arrow points to the amastigotes form of Leishmania donovani parasite. Scale bar represents […].

RAW 264.7 cells = assay: Cytotoxicity against RAW 264.7 cells (MTT); type: cell-based, murine; settings: for Host cell viability: 20 µM
Description: The cytotoxicity of different peptoids against RAW 264.7 cells was assessed by the MTT method following a published protocol. Briefly, murine macrophages were seeded in a 96‐well plate using DMEM supplemented with 10% FBS maintained at 37 °C and 5% CO2 for 24 h. Next, different concentrations of peptoids (5–80 μM) were added and incubated for 24 h followed by the addition of MTT for 2 h and solubilization of formazene crystals with DMSO addition. Percentage cell viability was calculated relative to the peptoid untreated sample.
Fig. 6 Percentage of living RAW 264.7 cells after incubation with different concentrations of peptoids. RAW 264.7 macrophage cells were incubated with peptoid for 24 h. […] The working concentration of 10 μM of peptoids caused only 50% or lower cytotoxicity in RAW 264.7 cells. Cell viability was determined by MTT assay, and data based on three experiments are represented by mean ± SD.

Structure (SMILES) | IC50 [1] [nM] | Effect on intracellular amastigotes [2] | Host cell viability (RAW 264.7 cells) | Reduction of promastigote viability [1] [%] | Effect on intracellular amastigotes by Giemsa staining (number, size, count) [2] | Reduction in host cell viability (RAW 264.7 cells; RAW 264.7 cells, 10 μM, 24 h, MTT)
C[C@@H](c1ccccc1)N(CC(N)=O)C(=O)CN(C(=O)CN(CCCCN)C(=O)CN(C(=O)CN(C(=O)CN(CCCCN)C(=O)CN(C(=O)CN(C(=O)CN(CCCCN)C(=O)CN(C(=O)CN(C(=O)CNCCCCN)[C@@H](C)c1ccccc1)[C@@H](C)c1ccccc1)[C@@H](C)c1ccccc1)[C@@H](C)c1ccccc1)[C@@H](C)c1ccccc1)[C@@H](C)c1ccccc1)[C@@H](C)c1ccccc1 [TM1] (H-[Nlys][Nspe][Nspe][Nlys][Nspe][Nspe][Nlys][Nspe][Nspe][Nlys][Nspe][Nspe]-NH2) |  | *** |  | ≥ 50 | reduction in number and size of amastigotes; also recorded: reduces the amastigote count | ~ 40% and 40%
C[C@@H](c1ccc(Br)cc1)N(CC(N)=O)C(=O)CN(C(=O)CN(CCCCN)C(=O)CN(C(=O)CN(C(=O)CNCCCCN)[C@@H](C)c1ccccc1)[C@@H](C)c1ccc(Br)cc1)[C@@H](C)c1ccccc1 [TM2] (H-[Nlys][Nspe][Nspe(4-Br)][Nlys][Nspe][Nspe(4-Br)]-NH2) | 1400 | * | more than 50% | ≥ 50 |  | 
CCCCCCCCCCCCCNCC(=O)N(CCCCN)CC(=O)N(CC(=O)N(CC(=O)N(CCCCN)CC(=O)N(CC(=O)N(CC(N)=O)[C@@H](C)c1ccc(Br)cc1)[C@@H](C)c1ccccc1)[C@@H](C)c1ccc(Br)cc1)[C@@H](C)c1ccccc1 [TM10] (H-[N(tridecyl)Gly][Nlys][Nspe][Nspe(4-Br)][Nlys][Nspe][Nspe(4-Br)]-NH2) | 1540 | *** |  |  | reduction in number and size of amastigotes; also recorded: significantly reduced their count | 

Continued by falling IC50 [1], values first:

IC50 [1] [nM] | Structure (SMILES) | Effect on intracellular amastigotes [2] | Host cell viability (RAW 264.7 cells) | Reduction of promastigote viability [1] [%] | Effect on intracellular amastigotes by Giemsa staining (number, size, count) [2] | Reduction in host cell viability (RAW 264.7 cells; RAW 264.7 cells, 10 μM, 24 h, MTT)
4600 | C[C@@H](c1ccc(Br)cc1)N(CC(N)=O)C(=O)CN(C(=O)CN(CCCCN)C(=O)CN(C(=O)CN(C(=O)CNCCCCN)[C@@H](C)c1ccccc1)[C@@H](C)c1ccccc1)[C@@H](C)c1ccccc1 [TM3] (H-[Nlys][Nspe][Nspe][Nlys][Nspe][Nspe(4-Br)]-NH2) | * | no toxicity |  |  | 
3030 | C[C@@H](c1ccccc1)N(CC(N)=O)C(=O)CN(C(=O)CN(CCCCN)C(=O)CN(C(=O)CN(C(=O)CNCCCCN)[C@@H](C)c1ccccc1)[C@@H](C)c1ccccc1)[C@@H](C)c1ccccc1 [TM7] (H-[Nlys][Nspe][Nspe][Nlys][Nspe][Nspe]-NH2) | ** | no toxicity | ≥ 50 | reduction in number and size of amastigotes; also recorded: significantly reduced their count | 
